In patent US10548877B2, “Aromatic ring compound” (TAKEDA PHARMACEUTICAL COMPANY LIMITED, priority 2016, dated 2020):

Target: T1, human M1 receptor (hCHRM1) (Homo sapiens, UniProt P11229)
T1 construct: expressed in transfected cells
T1 sequence (P11229 1-460): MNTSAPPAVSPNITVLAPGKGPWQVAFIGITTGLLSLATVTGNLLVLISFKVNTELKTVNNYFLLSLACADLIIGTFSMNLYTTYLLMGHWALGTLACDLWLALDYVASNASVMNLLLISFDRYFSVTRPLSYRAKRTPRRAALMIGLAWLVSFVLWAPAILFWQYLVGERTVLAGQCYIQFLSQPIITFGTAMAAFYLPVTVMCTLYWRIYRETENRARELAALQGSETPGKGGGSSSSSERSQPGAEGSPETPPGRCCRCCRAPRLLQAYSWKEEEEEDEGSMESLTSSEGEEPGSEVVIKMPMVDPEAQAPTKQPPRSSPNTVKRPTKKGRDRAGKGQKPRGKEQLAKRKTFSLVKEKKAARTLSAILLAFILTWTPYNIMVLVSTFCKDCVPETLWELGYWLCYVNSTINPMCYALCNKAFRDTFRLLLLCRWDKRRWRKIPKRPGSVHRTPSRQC
Assay: Measurement of M1 receptor positive allosteric modulator (M1PAM) activity (calcium fluorescence, Fluo-4)
Format: cell-based
Details: for EC50: inflection point of concentration-dependent curve, CHO-K1 cells stably expressing hCHRM1, in presence of acetylcholine at EC20 (final 0.8-1.0 nM), read-out: IP value; for activity (%) at 10 μM: test compound 10 μM with acetylcholine at EC20, 100% = 1 μM acetylcholine, 0% = DMSO, CHO-K1 cells expressing hCHRM1
Method: Measurement of M1 Receptor Positive Allosteric Modulator (M1PAM) Activity
The activity of a test compound in the presence of acetylcholine at EC20 concentration (final concentration 0.8-1.0 nM), which affords an action corresponding to about 20% of the maximum activity, was measured as PAM activity. The method is as follows. CHO-K1 cells stably expressing a human M1 receptor (hCHRM1) were plated on a 384-well black clear bottom plate (BD Falcon) at 5,000 cells/well, and cultured in an incubator at 37° C., 5% CO2 for 1 day. The medium in the cell plate was removed, and assay buffer A containing a calcium indicator (Recording medium (DOJINDO LABORATORIES), 0.1% BSA (Wako Pure Chemical Industries, Ltd.), 2.5 μg/mL Fluo-4 AM (DOJINDO LABORATORIES), 0.08% Pluronic F127 (DOJINDO LABORATORIES) and 1.25 mM probenecid (DOJINDO LABORATORIES) were added at 30 μL/well. The cells were left standing in the incubator at 37° C., 5% CO2 for 30 min, and further left standing at room temperature for 30 min. A test compound prepared by diluting with assay buffer B (HBSS (Invitrogen), 20 mM HEPES (Invitrogen), 0.1% BSA) containing 3.2-4.0 nM acetylcholine was added at 10 μL/well, and the fluorescence was measured by FDSS/pcell (Hamamatsu Photonics K.K.) for 1 min every for 1 second. With the definition that the amount of change in the fluorescence on addition of acetylcholine (final concentration 1 μM) is 100% and that on addition of DMSO instead of a test compound is 0%, the activity (%) of the test compound was calculated, and the inflection point in the concentration-dependent curve of the test compound was calculated as IP values.

EC50 [nM] | activity (%) at 10 μM [%] | SMILES
20 | 100 | COc1c(C(=O)N[C@H]2COCC[C@@H]2O)cc(Cc2ccc(-c3cn(C)nc3C)nc2)c(C)c1C [Example 28, 1,5-anhydro-2,4-dideoxy-2-((5-((6-(1,3-dimethyl-1H-pyrazol-4-yl)pyridin-3-yl)methyl)-2-methoxy-3,4-dimethylbenzoyl)amino)-L-threo-pentitol]
48 | 97 | COc1c(C(=O)N[C@H]2COCC[C@@H]2O)cc(Cc2ccc(-c3cn(C)nc3C)cc2)c(C)c1C [Example 29, 1,5-anhydro-2,4-dideoxy-2-((5-(4-(1,3-dimethyl-1H-pyrazol-4-yl)benzyl)-2-methoxy-3,4-dimethylbenzoyl)amino)-L-threo-pentitol]
67 | 97 | COc1c(C(=O)N[C@H]2COCC[C@@H]2O)cc(Cc2ccc(-c3ccn(C)n3)nc2)c(C)c1C [Example 31, 1,5-anhydro-2,4-dideoxy-2-((2-methoxy-3,4-dimethyl-5-((6-(1-methyl-1H-pyrazol-3-yl)pyridin-3-yl)methyl)benzoyl)amino)-L-threo-pentitol]
16 | 101 | Cc1c(Cc2ccc(-c3cscn3)cc2)cc(C(=O)N[C@H]2COCC[C@@H]2O)c(F)c1C [Example 32, 1,5-anhydro-2,4-dideoxy-2-((2-fluoro-3,4-dimethyl-5-(4-(1,3-thiazol-4-yl)benzyl)benzoyl)amino)-L-threo-pentitol]
